From US7977120B2, “Fluorescent sensors for cellular amines” (The Curators of the University of Missouri, priority 2005, dated 2011)
“Also recorded” adds a separate entry of the source.

Legend:
[1] = Titration of Sensor Ia with various analytes (UV-vis and fluorescence); assay type: binding; details: for Isat/I0 (λex = 446 nm): fluorescence intensity at saturation from theoretical fit to binding isotherm; for Isat/I0 (λex = 484 nm) / Isat/I0 (λex = 495 nm): fluorescence intensity at saturation from theoretical fit; for Kn (association constant): fluorescence spectroscopy, λem = 505 nm, error ± 20%, triplicate titration; for Isat/I0 (λex = 484 nm) / Kn (association constant): λex = 484 nm; for binding affinity for sensor Ia (in words): compared with catecholamines
Protocol: One exemplary coumarin-based sensor, 2-(((5-(7-(diethylamino)-3-formyl-2-oxo-2H-chromen-4-yl)pentyl)(methyl)amino)methyl)phenylboronic acid, sensor Ia, has been examined spectrophotometrically by titration with dopamine under neutral aqueous conditions in which a reducing agent is included to suppress oxidation of the air-sensitive catechol group.
The titration conditions are 10 μM sensor Ia with 100 mM Na2S2O3, 50 mM HEPES, 20 mM NaCl, pH=7.0, and at 37° C. […] See also, Org. Lett. 2004, 6(21), 3727-3730, which is incorporated herein by reference.
Binding constants (Ka) are determined by fluorescence titrations.

[2] = Fluorescence titration of quinolone sensors with butylamine; assay type: binding; details: Table 3; for Ka, Butylamine: 1:1 methanol-buffer, error ±20%, duplicate titrations; for Isat/I0, Butylamine: maximum change in fluorescence from theoretical fit
[3] = Fluorescence titration of quinolone sensors with ornithine; assay type: binding; details: Table 3; for Ka, Ornithine: 1:1 methanol-buffer
Source text: (§1) The present invention further discloses that the Quinolone-Dimer Sensors III can also provide detection for diamine analytes. The certain exemplary dimer sensors IIIa-g have been probed spectroscopically by UV-vis and fluorescence titration experiments. […] Moreover, by variation of the linker portion of the sensor III, useful selectivities for different length diamino-analytes have been achieved. First, the absorption spectra show trends similar to those observed with the coumarin sensors in which a large red shift in absorption maximum is observed upon addition of diamines to the sensors. […] As shown in FIG. 11(a), when sensor IIIg is titrated with diaminopropane, a 28 nm shift in absorbance is observed consistent with a shift from aldehyde to iminium ion forms. The red shift in absorption has been attributed to the hydrogen bond between the formed iminium ion and the carbonyl group of the chromophore. In fluorescence mode, by exciting the chromophore at 495 nm, a large increase in fluorescence was observed upon titration with the diamine (FIG. 11(b)).

[4] = Fluorescence titration of quinolone sensors with lysine; assay type: binding; details: Table 3; for Ka, Lysine: 1:1 methanol-buffer
Source text: (§2) The present invention further discloses that the Quinolone-Dimer Sensors III can also provide detection for diamine analytes. The certain exemplary dimer sensors IIIa-g have been probed spectroscopically by UV-vis and fluorescence titration experiments. […] Moreover, by variation of the linker portion of the sensor III, useful selectivities for different length diamino-analytes have been achieved.
(§3) First, the absorption spectra show trends similar to those observed with the coumarin sensors in which a large red shift in absorption maximum is observed upon addition of diamines to the sensors. […] As shown in FIG. 11(a), when sensor IIIg is titrated with diaminopropane, a 28 nm shift in absorbance is observed consistent with a shift from aldehyde to iminium ion forms. The red shift in absorption has been attributed to the hydrogen bond between the formed iminium ion and the carbonyl group of the chromophore. In fluorescence mode, by exciting the chromophore at 495 nm, a large increase in fluorescence was observed upon titration with the diamine (FIG. 11(b)). The fluorescence increase is fitted to a one-site binding isotherm which gave a binding constant of 6700 M^−1 with a maximum fluorescence increase at saturation (Isat/I0) of 6.6-fold.
(§4) Generally, the dimeric sensors were not as soluble as the monomeric derivatives, so binding studies were performed in 1:1 methanol:buffer (10 mM HEPES, pH=7.4). Water solubilizing groups, such as polyethylene groups, can be provided on the quinolone core in a straightforward synthetic manner. Binding constants and maximum fluorescence changes (Isat/I0) are provided in Table 4 for a few representative guests.

[5] = Relative affinity of dimer sensors across amine guests; assay type: binding; details: for guest selectivity (in words): comparison of guests, Tables 3 and 4
Source text: The certain exemplary dimer sensors IIIa-g have been probed spectroscopically by UV-vis and fluorescence titration experiments.
Water solubilizing groups, such as polyethylene groups, can be provided on the quinolone core in a straightforward synthetic manner. Binding constants and maximum fluorescence changes (Isat/I0) are provided in Table 4 for a few representative guests.

[6] = Fluorescence titration of quinolone sensors with diaminopentane; assay type: binding; details: Table 3; for Ka, Diaminopentane: 1:1 methanol-buffer
Source text: as §1

[7] = Fluorescence titration of quinolone sensors with diaminobutane; assay type: binding; details: Table 3; for Ka, Diaminobutane: 1:1 methanol-buffer
Source text: as §1

[8] = UV-vis and fluorescence titration of quinolone sensors with diaminopropane; assay type: binding; details: for Isat/I0, Diaminopropane / Ka, Diaminopropane: Table 3; for Ka, Diaminopropane: 1:1 methanol-buffer
Source text: as §2, §3, §4

[9] = system: bovine adrenal chromaffin cells; assay: Staining chromaffin cells with the simple monomer IIa (confocal microscopy); assay type: cell-based; details: for staining of cells seen by confocal microscopy: 0.5 μM, 15 minutes, 37 C, excitation 488 nm
Protocol: The present invention further provides that the Quinolone-Monomer Sensors II can sense catecholamines and map their movements in a live cell. The initial proof of concept has been carried out by staining chromaffin cells with the simple monomer IIa. Specifically, several sets of chromaffin cells (which contain norepinephrine) were freshly prepared on coverslips and various concentrations of IIa in media were added.
A stock solution of 50 mM in DMSO was diluted in cell culture media to yield a final concentration of 0.5 uM. Cells were incubated in this solution at 37 C for 15 minutes and then the cells were washed with cell culture media without dye and observed using a confocal microscope at room temperature. The excitation wavelength was 488 nm.
Several sets of chromaffin cells (which contain norepinephrine) were freshly prepared on coverslips and various concentrations of 112 in media were added. […] The nuclei are clearly visible as dark regions. […] Given that the sensor should bind equally well to all amines, it is likely that that the sensor is actively accumulating in the vesicles.

Structure (SMILES) | Isat/I0 (λex = 446 nm) [1] | Isat/I0 (λex = 484 nm) [1] | Isat/I0 (λex = 495 nm) [1] | Kn (association constant) [1] [M⁻¹] | Ka, Butylamine [2] [M⁻¹] | Isat/I0, Butylamine [2] | Isat/I0, Lysine [4] | Ka, Lysine [4] [M⁻¹] | other results
NC(CCC(=O)O)C(=O)O (stereo not drawn) | 0.87 | 7.0 | 25 | 6.8 |  |  |  |  | 
NCCCCC(N)C(=O)O (stereo not drawn) | 0.75 | 8.0 | 25 | 4.0 |  |  |  |  | 
NC1C(O)OC(CO)C(O)C1O (stereo not drawn) | 0.55 | 5.9 | 27 | 5.0 |  |  |  |  | 
CN(C)c1ccc2c(Sc3cccc(Sc4c(C=O)c(=O)n(Cc5ccccc5)c5cc(N(C)C)ccc45)c3)c(C=O)c(=O)n(Cc3ccccc3)c2c1 [Sensor IIId, meta-Benzenedithiol Dimer] |  |  |  |  | 72 | 8.8 | 4.7 | 2100 | Isat/I0, Ornithine [3]: 13; Ka, Ornithine [3]: 3300 M⁻¹; guest selectivity (in words) [5]: preference for ornithine; Isat/I0, Diaminopentane [6]: 15; Ka, Diaminopentane [6]: 1200 M⁻¹; Isat/I0, Diaminobutane [7]: 15; Ka, Diaminobutane [7]: 1600 M⁻¹; Isat/I0, Diaminopropane [8]: 16; Ka, Diaminopropane ([8]; excitation 495 nm): 3400 M⁻¹
CN(C)c1ccc2c(Sc3ccccc3Sc3c(C=O)c(=O)n(Cc4ccccc4)c4cc(N(C)C)ccc34)c(C=O)c(=O)n(Cc3ccccc3)c2c1 [Sensor IIIe] |  |  |  |  | 30 | 10 | 10 | 800 | Isat/I0, Ornithine [3]: 7.3; Ka, Ornithine [3]: 680 M⁻¹; Isat/I0, Diaminopentane [6]: 4.3; Ka, Diaminopentane [6]: 350 M⁻¹; Isat/I0, Diaminobutane [7]: 10; Ka, Diaminobutane [7]: 160 M⁻¹; Isat/I0, Diaminopropane [8]: 8.5; Ka, Diaminopropane ([8]; excitation 495 nm): 350 M⁻¹
CN(C)c1ccc2c(SCCCSc3c(C=O)c(=O)n(Cc4ccccc4)c4cc(N(C)C)ccc34)c(C=O)c(=O)n(Cc3ccccc3)c2c1 [Sensor IIIf] |  |  |  |  | 31 | 26 | 24 | 1460 | Isat/I0, Ornithine [3]: 22; Ka, Ornithine [3]: 550 M⁻¹; guest selectivity (in words) [5]: the preferred guest in both cases is lysine; Isat/I0, Diaminopentane [6]: 24; Ka, Diaminopentane [6]: 270 M⁻¹; Isat/I0, Diaminobutane [7]: 24; Ka, Diaminobutane [7]: 690 M⁻¹; Isat/I0, Diaminopropane [8]: 15; Ka, Diaminopropane ([8]; excitation 495 nm): 2100 M⁻¹
CN(C)c1ccc2c(SCCCCCSc3c(C=O)c(=O)n(Cc4ccccc4)c4cc(N(C)C)ccc34)c(C=O)c(=O)n(Cc3ccccc3)c2c1 [Sensor IIIg] |  |  |  |  | 43 | 38 | 27 | 2756 | Isat/I0, Ornithine [3]: 20; Ka, Ornithine [3]: 2400 M⁻¹; guest selectivity (in words) [5]: the preferred guest in both cases is lysine; extent of the difference, diamines bind better than butyl amine ([5]; ratio of binding constants, Table 3): 160 fold; Isat/I0, Diaminopentane [6]: 18; Ka, Diaminopentane [6]: 2200 M⁻¹; Isat/I0, Diaminobutane [7]: 27; Ka, Diaminobutane [7]: 1477 M⁻¹; Isat/I0, Diaminopropane [8]: 6.6; Ka, Diaminopropane ([8]; excitation 495 nm): 6700 M⁻¹; maximum fluorescence increase at saturation (Isat/I0) ([8]; excitation 495 nm, one-site binding isotherm, FIG. 11(b)): 6.6 fold
CCSc1c(C=O)c(=O)n(Cc2ccccc2)c2cc(N(C)C)ccc12 [Sensor IIa, 1-benzyl-7-(dimethylamino)-4-(ethylthio)-2-oxo-1,2-dihydroquinoline-3-carbaldehyde] |  |  |  |  | 76 | 32 | 41 | 129 | membrane / cell permeability [9]: membrane permeable; staining of cells seen by confocal microscopy [9]: selectively stained; also recorded: punctate staining; staining of cells seen by confocal microscopy ([9]; listed as 112): selectively stained; optimal sensor concentration ([9]; 15 minutes of equilibration time): 0.5 µM
NCCc1ccc(O)cc1 [Tyramine] | 0.41 | 8.0 | 52 | 250 |  |  |  |  | binding affinity for sensor Ia (in words) [1]: significantly reduced affinity
NCCc1ccc(O)c(O)c1 [dopamine] | 0.50 | 0.60 |  | 3400 |  |  |  |  | 
CNCC(O)c1ccc(O)c(O)c1 (stereo not drawn) [epinephrine] | 0.73 | 0.76 | 0.77 | 5000 |  |  |  |  | 
N[C@H]1C(O)O[C@H](CO)[C@@H](O)[C@@H]1O (stereo partly drawn) [glucosamine] |  |  |  |  |  |  |  |  | binding affinity for sensor Ia (in words) [1]: affinity similar to the simple amines
N[C@@H](CCC(=O)O)C(=O)O [glutamate] |  |  |  |  |  |  |  |  | binding affinity for sensor Ia (in words) [1]: low affinity
NCC(O)c1ccc(O)c(O)c1 (stereo not drawn) [norepinephrine] | 0.39 | 0.46 |  | 6500 |  |  |  |  | 
